According to the NIST ThermoML archive (doi:10.1021/je0504459):

Assay: xn = mol fraction of the nth substance listed
Conditions: 101 kPa, Liquid; for speed of sound: Sing-around technique in a fixed-path interferometer

ClC(Cl)Cl [trichloromethane] + CCCCCCO
Conditions	kinematic viscosity, 303.15 K [m2/s]	kinematic viscosity, 313.15 K [m2/s]	mass density, 303.15 K [kg/m3]	mass density, 313.15 K [kg/m3]	speed of sound, 303.15 K [m/s]	speed of sound, 313.15 K [m/s]
x1 = 0.0497	4.36e-06	3.21e-06	833.07	825.31	1271	1238
x1 = 0.1004	3.88e-06	2.89e-06	855.62	847.51	1253	1220
x1 = 0.15	3.45e-06	2.59e-06	878.54	870.06	1236	1201
x1 = 0.2006	3.04e-06	2.31e-06	902.79	893.94	1217	1182
x1 = 0.2506	2.67e-06	2.05e-06	927.71	918.4	1198	1163
x1 = 0.3005	2.34e-06	1.83e-06	953.48	943.71	1180	1143
x1 = 0.3497	2.04e-06	1.6e-06	980.04	969.85	1161	1125
x1 = 0.4004	1.77e-06	1.41e-06	1008.41	997.66	1142	1105
x1 = 0.4516	1.53e-06	1.23e-06	1038.38	1027.09	1123	1086
x1 = 0.4996	1.34e-06	1.09e-06	1067.63	1055.84	1106	1069
x1 = 0.552	1.14e-06	9.5e-07	1100.94	1088.53	1087	1051
x1 = 0.6	9.87e-07	8.33e-07	1133.01	1120	1070	1034
x1 = 0.654	8.52e-07	7.35e-07	1170.75	1157	1052	1016
x1 = 0.7001	7.46e-07	6.49e-07	1204.57	1190.18	1038	1002
x1 = 0.753	6.5e-07	5.82e-07	1245.39	1230.25	1023	986
x1 = 0.7992	5.82e-07	5.22e-07	1282.69	1266.83	1010	974
x1 = 0.8511	5.08e-07	4.7e-07	1327.07	1310.35	997	961
x1 = 0.8996	4.5e-07	4.26e-07	1370.59	1352.95	987	950
x1 = 0.9502	4.06e-07	3.81e-07	1418.68	1400.1	977	941
x1 = 1	3.63e-07	3.39e-07	1469.21	1449.74	969	934
